Experimental data: patent US9365534B2, “Arylated camphenes, processes for their preparation and uses thereof” (Yissum Research Development Company of the Hebrew …, priority 2009, dated 2016)

Tests used:
TNF-α = TNF-α production in brain following CHI (ELISA); assay type: in vivo, mice; details: HU-914 5 mg/kg i.p. 1 h after CHI, sacrificed 4 hrs after CHI
Description: TNF-α activity can be induced by ischemic and traumatic brain injury starting at 1-2 h and reaching the peak at 4 h following CHI. (Shohami et al., 1997). The next step was to investigate the effect of HU-914 on TNF-α production after CHI. Three groups of mice (n=5-6) were subjected to CHI: • Group 1 (Control): Sham controls received anesthesia and skin incision only. • Group 2: Vehicle only (ethanol:cremophor:saline at ratio of 1:1:18), i.p. 1 h after CHI. • Group 3: HU-914, 5 mg/kg, dissolved in vehicle (1:1:18 ethanol:cremophor:saline), i.p. 1 h after CHI.
The animals were sacrificed 4 hrs after CHI by decapitation. Brains were rapidly removed and dissected into ipsilateral and contralateral cortical and hippocampal segments that were frozen in liquid nitrogen and kept at […]. […] Following sonication on ice for 45 s and centrifugation at 12,000 rpm for 20 min, protein concentrations in the supernatants were determined using the Bradford method (Bio-Rad Laboratories, Munich, Germany). Supernatants were analyzed by enzyme-linked immunosorbent assay (ELISA) for production of TNF-α, using cytokine specific kit from R&D Systems (Minneapolis, Minn.). […] TNF-α elevation was not detected in the right cortex or hippocampus (FIG. 8).

human CB1 receptor = human CB1 receptor (Homo sapiens (Human), UniProt P21554); experiment: cell-based; details: whole cells expressing CB1, 50 μM forskolin; read-out: cAMP Assay CB1 Receptor IC50
Sequence of human CB1 receptor (P21554 whole entry): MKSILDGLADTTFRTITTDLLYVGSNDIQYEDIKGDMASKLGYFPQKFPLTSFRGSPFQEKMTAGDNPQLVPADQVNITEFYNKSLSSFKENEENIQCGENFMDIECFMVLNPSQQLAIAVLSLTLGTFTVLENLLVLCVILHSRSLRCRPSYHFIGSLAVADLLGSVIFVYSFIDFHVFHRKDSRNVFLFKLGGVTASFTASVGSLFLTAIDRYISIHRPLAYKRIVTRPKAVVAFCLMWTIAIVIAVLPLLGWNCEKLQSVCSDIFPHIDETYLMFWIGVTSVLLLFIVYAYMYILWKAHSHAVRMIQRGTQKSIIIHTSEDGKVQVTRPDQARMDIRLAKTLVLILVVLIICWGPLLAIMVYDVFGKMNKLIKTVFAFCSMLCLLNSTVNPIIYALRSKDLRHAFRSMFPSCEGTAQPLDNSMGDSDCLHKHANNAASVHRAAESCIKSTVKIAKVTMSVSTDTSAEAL
Text: (§1) The cDNA clones for human HA-tagged CB1 and CB2 receptors were obtained from the Missouri S&T cDNA Resource Center (www.cdna.org) in cloning vector pcDNA3.1+. The vector containing the human CB2 receptor was transfected directly into CHO-KI cells obtained from ATCC. The HA-tagged human CB1 receptor sequence was subcloned into the pef4-V5-HisA vector with Kpn1 and Pme1 restriction enzymes and subsequently transfected into CHO-K1 cells. Cells were clonally isolated by limited dilution and screened by immunocytochemistry for expression of the HA tag.
(§2) Cells were maintained in DMEM/F12 media supplemented with 10% fetal bovine serum (FBS), 100 units/ml penicillin and 100 μg/ml streptomycin and 2 mM L-glutamine. Transfected cell lines were maintained with additional 150 ug/ml zeocin for pEF HA-CB1 transfected cells and 500 ug/ml G-418 for pcDNA HA-CB2 transfected cells (all reagents obtained from Invitrogen).
(§3) Cells were seeded at a density of 10,000 cells per well in poly-L-lysine treated 96-well culture plates (BD Biosciences). The following day wells were incubated with 40 μl DMEM/F12 containing 0.5% (w/v) BSA and 0.5 mM 3-isobutyl-1-methylxanthine (Sigma-Aldrich) for 30 minutes prior to 15 min stimulation with 50 μM forskolin (Tocris Cookson) and varying concentrations of indicated compounds at 37° C., 5% CO2. Assays were stopped by removal of media and addition of 100% ice cold ethanol. Plates were then frozen for a minimum of two hours before complete evaporation of ethanol. The well contents were then reconstituted in 50 μl cAMP assay buffer (20 mM HEPES pH 7.5 and 5 mM EDTA). Half of the reconstituted sample was transferred to round bottom 96-well plates (Greiner Bio-One GmbH) with 50 μl 0.01% w/v PKA (cAMP dependent protein kinase (Sigma-Aldrich) in 1 mM Na citrate pH 6.5 with 2 mM dithiothreitol) and 25 μl [^3H]-cAMP (at 22 nM in cAMP assay buffer) (GE Healthcare, Life Sciences). This was allowed to equilibrate for 3-18 hours. Following this a charcoal slurry (5% (w/v) activated charcoal and 0.2% (w/v) BSA in cAMP assay buffer) was added to the samples and the plates centrifuged at 3000×g, 4° C. for 5 min. Radioactive counts within the supernatant were then determined as described for competition binding assays.
(§4) pIC50 values were determined from cAMP assays by fitting a sigmoidal concentration response curve using Prism 4.02.

human CB2 receptor [1] = target: T1, human CB2 receptor (Homo sapiens (Human), UniProt P34972); experiment: cell-based; details: for Emax: CHO, read-out: cAMP Assay CB2 Receptor Emax; for IC50: read-out: cAMP Assay CB2 Receptor IC50
Text: as §1, §2, §3, §4

human CB2 receptor [2] = target: T1, human CB2 receptor; experiment: Membrane [35S]GTPγS binding assay; assay type: biochemical
Description: Human CB2 expressing CHO-K1 membranes (5 μg per incubation mixture) were diluted in 50 mM Tris-HCl (pH 7.5) and 0.5 mM EDTA and added to HU compounds in a pre-mixed incubation cocktail. Final incubation concentrations were 55 mM Tris-HCl (pH 7.4), 1 mM EDTA, 100 mM NaCl, 5 mM MgCl2, 0.5% BSA, 50 μM GDP, 0.2 nM [^35S]GTPγS (PerkinElmer) with varied HU compound concentration and 5 μg membrane. Incubations were continued for 60 minutes at 30° C. in a shaking water bath. Assays were terminated by addition of 2 ml ice cold wash buffer (50 mM Tris-HCl, pH 7.5 and 5 mM MgCl2) and filtration through pre-soaked GF/C filters (Whatman), followed by two further washes. adioactivity was determined as described for competition binding assays.
Data was analyzed using the Prism 4.02 programme (GraphPad Software, San Deigo, Calif., USA). IC50 and EC50 values, as determined from sigmoidal curves, were generated from drug concentrations plotted in log scale. […] It is possible to display data as an average, plus or minus the standard error of the mean in log form, however, this is not easily interpreted or compared to other values. It was therefore elected to calculate the 95% confidence interval for the mean value in log form and then convert the lower limit, mean and upper limit into the molar (linear) scale. […] Two-tailed t-tests for statistical analysis between enantiomeric pairs of compounds were performed for CB2 Ki values. The Pearson value, an indication of linearity, was determined for Ki and IC50 or EC50 results obtained for CB2 receptors in binding, cAMP or GTPγS experiments, respectively.

Row | Compound | TNF-α level, left cortex (TNF-α) | TNF-α production, hippocampus of the injured left hemisphere (TNF-α) | IC50 (human CB1 receptor) [µM] | Emax (human CB2 receptor [1]) [%] | IC50 (human CB2 receptor [1]) [µM] | EC50 (human CB2 receptor [2]) [µM] | Emax (human CB2 receptor [2]; read-out: [35S]GTPγS Emax) [%]
1 | CCCCCCC(C)(C)c1cc(OC)c(C2=C[C@H]3CC[C@]2(C(=O)O)C3(C)C)c(OC)c1 [HU-914, (1S,4R)-2-(2,6-dimethoxy-4-(2-methyloctan-2-yl)phenyl)-7,7-dimethylbicyclo[2.2.1]hept-2-ene-1-carboxylic acid] | did not affect the cytokine's level | inhibited TNF-α production | > 50 | 82 ± 7 | 2.29 | – | –
2 | CCCCCCC(C)(C)c1cc(OC)c(C2=C[C@H]3CC[C@]2(CO)C3(C)C)c(OC)c1 [HU-910, (1S,4R)-(2-(2,6-dimethoxy-4-(2-methyloctan-2-yl)phenyl)-7,7-dimethylbicyclo[2.2.1]hept-2-en-1-yl)methanol] | – | – | > 50 | 105 ± 12 | 0.162 | 0.0264 | 121 ± 7
